US20240059753A1, “COMPOSITIONS INCLUDING MULTI-AGONIST PEPTIDES AND METHODS OF MANUFACTURE AND USE” (Pep2Tango Therapeutics Inc., priority 2022, published 2024)
Counter-ions that a name gives are not always drawn. Numbered stars: 1 amine (or outer) side, 2 acyl side, 3 side chain; on linkers, the order of the positions; unused ones are H or OH. Bridge positions count the residues as written; N and C are the ends. Square brackets hold non-standard residues; d marks the D form. Side chains are listed from the residue outwards. * marks the point of attachment. C18 diacid = O=C(O)CCCCCCCCCCCCCCCCC(=O)*; γGlu = O=C(O)[C@H](CCC(=O)[*:2])N[*:1]; AEEA = NCCOCCOCC(=O)O; Aib = CC(C)(N)C(=O)O

Columns and labels:
4 h fasted mice = assay: Blood glucose after single administration of peptides; type: in vivo
Protocol: Differences were considered statistically significant at p<0.05. Data analysis was carried out with GraphPad software (GraphPad Prism).

Human GLP-1R = Human GLP-1R (Homo sapiens, UniProt P43220); assay: GPCR cell-based cAMP assay, human GLP-1 receptor; set-up: expressed in transfected cells; host or cells: CHO-K1, stably transfected; conditions: stably transfected CHO-Kl cells, 0.1% casein
Human GLP-1R, sequence (P43220 24-463): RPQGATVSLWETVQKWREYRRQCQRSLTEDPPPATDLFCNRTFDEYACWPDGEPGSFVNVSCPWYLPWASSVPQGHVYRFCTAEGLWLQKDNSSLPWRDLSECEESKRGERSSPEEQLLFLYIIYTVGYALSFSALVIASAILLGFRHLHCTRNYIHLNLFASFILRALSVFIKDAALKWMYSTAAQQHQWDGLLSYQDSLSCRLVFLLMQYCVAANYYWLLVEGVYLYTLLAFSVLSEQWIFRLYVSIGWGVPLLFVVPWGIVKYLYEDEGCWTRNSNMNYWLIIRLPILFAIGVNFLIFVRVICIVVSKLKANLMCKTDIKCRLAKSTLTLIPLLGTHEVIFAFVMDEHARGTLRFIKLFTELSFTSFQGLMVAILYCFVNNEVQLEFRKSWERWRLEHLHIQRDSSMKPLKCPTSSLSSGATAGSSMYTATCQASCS
Protocol: (§1) Experimental protocol: Cells were seeded in a total volume of 20 μL into white walled, 384-well microplates and incubated at 37° C. overnight prior to testing. Prior to testing cell plating media was exchanged with 10 μL of Assay buffer (HBSS+10 mM HEPES). All compounds were run in assay buffer containing 0.1% casein. Briefly, intermediate dilution of sample stocks was performed to generate 4× sample in assay buffer. 5 μL of 4× sample was added to cells and incubated at 37° C. for 30 minutes. Final assay vehicle concentration was 1%. […] Microplates were read following signal generation with PerkinElmer Envision instrument for chemiluminescent signal detection.
(§2) The results are expressed as a percent efficacy relative to the maximum response of the control ligand.

Human GIPR = target: T1, Human GIPR (Homo sapiens, UniProt P48546); assay: GPCR cell-based cAMP assay, human GIP receptor; conditions: stably transfected CHO-Kl cells, 0.1% casein
T1 construct: expressed in transfected cells; host or cells: CHO-K1, stably transfected
T1 sequence (P48546 22-466): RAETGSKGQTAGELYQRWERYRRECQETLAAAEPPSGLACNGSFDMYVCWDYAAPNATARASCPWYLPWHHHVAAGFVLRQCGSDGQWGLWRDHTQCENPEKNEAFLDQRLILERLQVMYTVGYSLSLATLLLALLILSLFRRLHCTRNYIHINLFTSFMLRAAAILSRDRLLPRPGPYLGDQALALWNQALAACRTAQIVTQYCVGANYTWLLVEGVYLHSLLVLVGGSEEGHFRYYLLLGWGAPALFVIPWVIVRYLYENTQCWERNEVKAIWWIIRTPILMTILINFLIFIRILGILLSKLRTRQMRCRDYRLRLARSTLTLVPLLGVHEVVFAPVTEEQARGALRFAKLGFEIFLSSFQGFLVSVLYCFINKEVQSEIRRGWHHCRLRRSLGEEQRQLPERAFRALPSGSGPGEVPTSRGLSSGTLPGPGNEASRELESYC
Protocol: as §1, §2

Human CalcitoninR = target: T2, Human CalcitoninR (Homo sapiens, UniProt P30988); assay: GPCR cell-based cAMP assay, human calcitonin receptor; conditions: stably transfected CHO-Kl cells, 0.1% casein
T2 construct: expressed in transfected cells; host or cells: CHO-K1, stably transfected
T2 sequence (P30988 25-474): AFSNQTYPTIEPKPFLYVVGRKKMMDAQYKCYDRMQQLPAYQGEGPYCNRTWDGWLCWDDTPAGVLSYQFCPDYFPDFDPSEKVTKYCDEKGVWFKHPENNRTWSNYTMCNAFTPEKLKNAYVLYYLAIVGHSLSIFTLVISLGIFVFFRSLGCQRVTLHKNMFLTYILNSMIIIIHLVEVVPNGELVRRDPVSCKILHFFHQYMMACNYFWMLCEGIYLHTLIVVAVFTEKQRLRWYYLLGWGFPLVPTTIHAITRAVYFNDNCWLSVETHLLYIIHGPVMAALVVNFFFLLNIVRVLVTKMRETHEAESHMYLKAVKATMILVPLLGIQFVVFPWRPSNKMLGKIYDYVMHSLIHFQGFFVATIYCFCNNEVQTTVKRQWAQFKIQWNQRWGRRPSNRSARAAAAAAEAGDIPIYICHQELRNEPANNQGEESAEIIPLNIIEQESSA
Protocol: as §1, §2

Human Calc/RAMP3R (AMY3) = target: T3, Human Calc/RAMP3R (AMY3) (Homo sapiens, UniProt O60896+P30988); assay: GPCR cell-based cAMP assay, human AMY3 receptor; conditions: stably transfected CHO-Kl cells, 0.1% casein
T3 construct: expressed in transfected cells; host or cells: CHO-K1, stably transfected
T3 sequence (P30988 25-474): T2 sequence (P30988 25-474)
T3 sequence (O60896 24-148 partner): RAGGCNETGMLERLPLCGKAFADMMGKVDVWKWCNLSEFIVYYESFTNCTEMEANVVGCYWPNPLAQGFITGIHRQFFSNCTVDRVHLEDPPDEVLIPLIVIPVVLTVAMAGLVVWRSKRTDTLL
Protocol: as §1, §2

| Compound | Blood glucose, 120 min (4 h fasted mice; 4 h fasted mice, single s.c. 10 nmol/Kg, 120 min after injection, mean ± SEM) [mg/dL] | Blood glucose, 240 min (4 h fasted mice; 4 h fasted mice, single s.c. 10 nmol/Kg, 240 min after injection, mean ± SEM) [mg/dL] | Blood glucose, Time 0 (4 h fasted mice; 4 h fasted mice, single s.c. 10 nmol/Kg, Time 0 (baseline), mean ± SEM) [mg/dL] | Significantly reduced blood glucose at 120 min and 240 min compared to time 0 (4 h fasted mice; single s.c. 10 nmol/kg) | EC50 (Human GLP-1R) [nM] | EC50 (Human GIPR) [nM] | EC50 (Human CalcitoninR) [nM] | EC50 (Human Calc/RAMP3R (AMY3)) [nM] |
| --- | --- | --- | --- | --- | --- | --- | --- | --- |
| Cagrilintide [reference compound] | 189.7 ± 5.52 | 164.6 ± 6.48 | 169.0 ± 3.45 | not | – | – | – | – |
| Y[Aib]EGTFTSDYSI[Aib]LDKIAQQAFVQWLIAGGPSKCNTATCATQK([AEEA-AEEA-γGlu-C18 diacid])LAEFLRHSSNNFGPILPPTNVGSHTP-NH2 (disulfide 34-39 (inferred)) [SEQ ID NO. 56, Y-Aib-E-G-T-F-T-S-D-Y-S-I-Aib-LDKIAQQAFVQWLIAGGPSKCNTATCATQK*-LAEFLRHSSNNFGPILPPTNVGSHTP-NH2-acetate salt (wherein K* = Lys(AEEAc-AEEAc-γ-Glu-17-carboxyheptadecanoyl))] | – | – | – | – | 1 | 0.029 | – | – |
| Y[Aib]EGTFTSDYSI[Aib]LDKIAQQAFVQWLIAGGPSASHLSTAVLGK([AEEA-AEEA-γGlu-C18 diacid])LS[Aib]ELHKLEDYPRTDVGAESP-NH2 [SEQ ID NO. 57, Y-Aib-E-G-T-F-T-S-D-Y-S-I-Aib-LDKIAQQAFVQWLIAGGPSASHLSTAVLGK*-L-S-Aib-E-L-H-K-L-E-D-Y-P-R-T-D-V-G-A-E-S-P-NH2-acetate salt (wherein K* = Lys(AEEAc-AEEAc-γ-Glu-17-carboxyheptadecanoyl))] | – | – | – | – | 0.724 | 0.047 | 0.044 | 0.152 |
| CC[C@H](C)[C@H](NC(=O)[C@H](CC(C)C)NC(=O)[C@H](Cc1c[nH]c2ccccc12)NC(=O)[C@H](CCC(N)=O)NC(=O)[C@@H](NC(=O)[C@H](Cc1ccccc1)NC(=O)[C@H](C)NC(=O)[C@H](CCC(N)=O)NC(=O)[C@H](CCC(N)=O)NC(=O)[C@H](C)NC(=O)[C@@H](NC(=O)[C@H](CCCCN)NC(=O)[C@H](CC(=O)O)NC(=O)[C@H](CC(C)C)NC(=O)C(C)(C)NC(=O)[C@@H](NC(=O)[C@H](CO)NC(=O)[C@H](Cc1ccc(O)cc1)NC(=O)[C@H](CC(=O)O)NC(=O)[C@H](CO)NC(=O)[C@@H](NC(=O)[C@H](Cc1ccccc1)NC(=O)[C@@H](NC(=O)CNC(=O)[C@H](CCC(=O)O)NC(=O)C(C)(C)NC(=O)[C@@H](N)Cc1ccc(O)cc1)[C@@H](C)O)[C@@H](C)O)[C@@H](C)CC)[C@@H](C)CC)C(C)C)C(=O)N[C@@H](C)C(=O)NCC(=O)NCC(=O)N1CCC[C@H]1C(=O)N[C@@H](CO)C(=O)N[C@@H](CCCCNC(=O)COCCOCCNC(=O)COCCOCCNC(=O)CC[C@H](NC(=O)CCCCCCCCCCCCCCCCC(=O)O)C(=O)O)C(=O)N[C@H]1CSSC[C@@H](C(=O)N[C@@H](C)C(=O)N[C@H](C(=O)N[C@@H](CCC(N)=O)C(=O)N[C@@H](CCCNC(=N)N)C(=O)N[C@@H](CC(C)C)C(=O)N[C@@H](C)C(=O)N[C@@H](CCC(=O)O)C(=O)N[C@@H](Cc2ccccc2)C(=O)N[C@@H](CC(C)C)C(=O)N[C@@H](CCCNC(=N)N)C(=O)N[C@@H](Cc2c[nH]cn2)C(=O)N[C@@H](CO)C(=O)N[C@@H](CO)C(=O)N[C@@H](CC(N)=O)C(=O)N[C@@H](CC(N)=O)C(=O)N[C@@H](Cc2ccccc2)C(=O)NCC(=O)N2CCC[C@H]2C(=O)N[C@H](C(=O)N[C@@H](CC(C)C)C(=O)N2CCC[C@H]2C(=O)N2CCC[C@H]2C(=O)N[C@H](C(=O)N[C@@H](CC(N)=O)C(=O)N[C@H](C(=O)NCC(=O)N[C@@H](CO)C(=O)N[C@@H](Cc2c[nH]cn2)C(=O)N[C@H](C(=O)N2CCC[C@H]2C(N)=O)[C@@H](C)O)C(C)C)[C@@H](C)O)[C@@H](C)CC)[C@@H](C)O)NC(=O)[C@H]([C@@H](C)O)NC(=O)[C@H](C)NC(=O)[C@H]([C@@H](C)O)NC(=O)[C@H](CC(N)=O)NC1=O [SEQ ID NO. 55, Y-Aib-E-G-T-F-T-S-D-Y-S-I-Aib-LDKIAQQAFVQWLIAGGPSK*-CNTATCATQRLAEFLRHSSNNFGPILPPTNVGSHTP-NH2-acetate salt (wherein K* = Lys(AEEAc-AEEAc-γ-Glu-17-carboxyheptadecanoyl))] | – | – | – | – | 0.324 | 0.019 | 44.2 | 46.1 |
